# Patent US4584377A, “Novel Fredericamycin A derivatives” (SS Pharmaceutical Co., Ltd., priority 1983, dated 1986)
# Columns and labels:
# [1] = test system: Staphylococcus epidermidis ATCC 12228; test: MIC, antibacterial activity (agar culture); type: cell-based; details: ATCC12228, 37° C., 18-20 hours, Mueller-Hinton agar, read-out: Minimum inhibitory concentration MIC
# [2] = test system: Piricularia oryzae IAM 5016; test: microbe, parasite or virus in culture; type: cell-based; details: 120 h; read-out: Minimum inhibitory concentration MIC
# Ehrlich carcinoma = test: Antitumor effect, survival of tumor-inoculated mice; type: in vivo, ICR mice; details: intraperitoneally, once a day for 10 days
# mouse leukemia P-388 = test: as above; type: in vivo, CDF1 mice; details: intraperitoneally, once a day for 10 days
# Procedure: (§1) Antitumor effects of some Fredericamycin A derivatives against Ehrlich carcinoma, Meth-A fibrosarcoma and mouse leukemia P-388 were tested in accordance with the following procedures. Antitumor effects against Ehrlich carcinoma and Meth-A fibrosarcoma are expressed by percentage of mean survival time of test and control animals. Antitumor effects against P-388 are expressed by percentage of median survival time of test and control animals.
# (§2) (ii) Meth-A fibrosarcoma and mouse leukemia P-388:
# (§3) 1×10^6 tumor cells were inoculated to CDF1 mice (.male., Charles River Japan Inc.) intraperitoneally. Each tested compound was given intraperitoneally once a day for 10 days from 1 day after tumor inoculation.
# physchem = type: physicochemical; details: 10 μg/ml in dimethylsulfoxide/physiological saline; for Percentage remainder: 0 hr.; for remaining at 3 h / remaining at 6 h / remaining at 24 h / remaining at 48 h / remaining at 72 h: read-out: Percentage remainder
# Procedure: The stability of some Fredericamycin A derivatives and Fredericamycin A in their aqueous solutions were tested in accordance with the following procedures.
# The test compounds were individually dissolved in dimethylsulfoxide, followed by dilution of the resulting solutions with physiological saline to adjust the final concentrations of the test compounds and Fredericamycin to 10 μg/ml respectively. The thus-prepared test solutions were then subjected to high performance liquid chromatography after predetermined time intervals to measure the percentage remainders of the test compounds.
# Meth-A fibrosarcoma = test: Antitumor effect, survival of tumor-inoculated mice; type: in vivo, CDF1 mice; details: intraperitoneally, once a day for 10 days
# Procedure: as §1, §2, §3
# [3] = Mus musculus, ip, 240 h, 0.5 mg/kg/day, read-out: percentage of mean survival time of test and control animals
# [4] = Mus musculus, ip, 240 h, 1.0 mg/kg/day, read-out: percentage of mean survival time of test and control animals
# [5] = Mus musculus, ip, 240 h, 2.0 mg/kg/day, read-out: percentage of mean survival time of test and control animals
compound,measurement,setting,value
C/C=C/C=C/c1cc2cc3c(c(O)c2c(=O)[nH]1)C1(CC3)C(=O)c2c(OC(=O)c3ccc(OC)cc3)c3c(c(OC(=O)c4ccc(OC)cc4)c2C1=O)C(=O)C(OC)=CC3=O (stereo not drawn) [Compound 10],MIC,[1],12.5 µg/mL
same,MIC,[2],1.56 µg/mL
same,response vs control in vivo at 0.5 mg/kg/day,Ehrlich carcinoma; [3],105%
same,response vs control in vivo at 1 mg/kg/day,Ehrlich carcinoma; [4],171%
same,response vs control in vivo at 2 mg/kg/day,Ehrlich carcinoma; [5],> 202%
"CCCCCc1cc2cc3c(c(O)c2c(=O)[nH]1)C1(CC3)C(=O)c2c(c(OC(C)=O)c3c(OC(C)=O)c(OC)cc(OC(C)=O)c3c2OC(C)=O)C1=O (stereo not drawn) [Compound 12, leucotetraacetyltetrahydrofredericamycin A]",response vs control in vivo at 2 mg/kg/day,Ehrlich carcinoma; [5],116%
same,response vs control in vivo at 4 mg/kg/day,"Ehrlich carcinoma; Mus musculus, ip, 240 h, 4.0 mg/kg/day, read-out: percentage of mean survival time of test and control animals",136%
same,response vs control in vivo at 8 mg/kg/day,"Ehrlich carcinoma; Mus musculus, ip, 240 h, 8.0 mg/kg/day, read-out: percentage of mean survival time of test and control animals",> 203%
same,percentage of median survival time of test and control animals,mouse leukemia P-388; 2.0 mg/kg/day,142%
same,percentage of median survival time of test and control animals,mouse leukemia P-388; 4.0 mg/kg/day,146%
same,percentage of median survival time of test and control animals,mouse leukemia P-388; 8.0 mg/kg/day,152%
same,Percentage remainder,physchem,100%
same,remaining at 3 h,physchem,99%
same,remaining at 6 h,physchem,98.3%
same,remaining at 24 h,physchem,97.1%
same,remaining at 48 h,physchem,95.7%
same,remaining at 72 h,physchem,94.4%
"CCCCCc1cc2cc3c(c(O)c2c(=O)[nH]1)C1(CC3)C(=O)c2c(O)c3c(c(O)c2C1=O)C(=O)C(OC)=CC3=O (stereo not drawn) [Compound 17, tetrahydrofredericamycin A]",response vs control in vivo at 0.125 mg/kg/day,"Ehrlich carcinoma; Mus musculus, ip, 240 h, 0.125 mg/kg/day, read-out: percentage of mean survival time of test and control animals",187%
same,response vs control in vivo at 0.25 mg/kg/day,"Ehrlich carcinoma; Mus musculus, ip, 240 h, 0.25 mg/kg/day, read-out: percentage of mean survival time of test and control animals",248%
same,response vs control in vivo at 0.5 mg/kg/day,Ehrlich carcinoma; [3],250%
same,percentage of mean survival time of test and control animals,Meth-A fibrosarcoma; 0.25 mg/kg/day,102%
same,percentage of mean survival time of test and control animals,Meth-A fibrosarcoma; 0.5 mg/kg/day,129%
same,percentage of mean survival time of test and control animals,Meth-A fibrosarcoma; 1.0 mg/kg/day,164%
same,percentage of mean survival time of test and control animals,Meth-A fibrosarcoma; 2.0 mg/kg/day,232%
same,percentage of median survival time of test and control animals,mouse leukemia P-388; 2.0 mg/kg/day,130%
same,percentage of median survival time of test and control animals,mouse leukemia P-388; 4.0 mg/kg/day,143%
same,percentage of median survival time of test and control animals,mouse leukemia P-388; 8.0 mg/kg/day,152%
CCCCCCCCCCCC(=O)Oc1c2c(c(OC(=O)CCCCCCCCCCC)c3c1C(=O)C1(CCc4cc5cc(CCCCC)[nH]c(=O)c5c(O)c41)C3=O)C(=O)C(OC)=CC2=O (stereo not drawn) [Compound 21],Percentage remainder,physchem,100%
same,remaining at 3 h,physchem,95.3%
same,remaining at 6 h,physchem,92.2%
same,remaining at 24 h,physchem,87.3%
same,remaining at 48 h,physchem,80.5%
same,remaining at 72 h,physchem,74.8%
C/C=C/C=C/c1cc2cc3c(c(O)c2c(=O)[nH]1)C1(CC3)C(=O)c2c(OC(=O)CCCCC)c3c(c(OC(=O)CCCCC)c2C1=O)C(=O)C(OC)=CC3=O (stereo not drawn) [Compound 5],MIC,[1],25 µg/mL
same,MIC,[2],0.39 µg/mL
same,percentage of mean survival time of test and control animals,Ehrlich carcinoma; 0.5 mg/kg/day,over 247%
same,percentage of mean survival time of test and control animals,Ehrlich carcinoma; 1.0 mg/kg/day,over 229%
same,percentage of mean survival time of test and control animals,Ehrlich carcinoma; 2.0 mg/kg/day,over 256%
same,Percentage remainder,physchem,100%
same,remaining at 3 h,physchem,93.2%
same,remaining at 6 h,physchem,88%
same,remaining at 24 h,physchem,67.6%
same,remaining at 48 h,physchem,57.8%
same,remaining at 72 h,physchem,47.9%
C/C=C/C=C/c1cc2cc3c(c(O)c2c(=O)[nH]1)C1(CC3)C(=O)c2c(OC(=O)c3ccccc3)c3c(c(OC(=O)c4ccccc4)c2C1=O)C(=O)C(OC)=CC3=O (stereo not drawn) [Compound 8],response vs control in vivo at 0.5 mg/kg/day,Ehrlich carcinoma; [3],166%
same,response vs control in vivo at 1 mg/kg/day,Ehrlich carcinoma; [4],> 199%
same,response vs control in vivo at 2 mg/kg/day,Ehrlich carcinoma; [5],97%
"C/C=C/C=C/c1cc2cc3c(c(O)c2c(=O)[nH]1)C1(CC3)C(=O)c2c(OC(=O)c3ccc(C)cc3)c3c(c(OC(=O)c4ccc(C)cc4)c2C1=O)C(=O)C(OC)=CC3=O (stereo not drawn) [Compound 3, Fredericamycin A di-p-methylbenzoate]",MIC,[1],25 µg/mL
same,MIC,[2],6.25 µg/mL
"C/C=C/C=C/c1cc2cc3c(c(O)c2c(=O)[nH]1)C1(CC3)C(=O)c2c(OC(=O)CC(C)C)c3c(c(OC(=O)CC(C)C)c2C1=O)C(=O)C(OC)=CC3=O (stereo not drawn) [Compound 2, Fredericamycin A diisovalerate]",response vs control in vivo at 0.5 mg/kg/day,Ehrlich carcinoma; [3],120%
same,response vs control in vivo at 1 mg/kg/day,Ehrlich carcinoma; [4],> 168%
same,response vs control in vivo at 2 mg/kg/day,Ehrlich carcinoma; [5],> 229%
C/C=C/C=C/c1cc2cc3c(c(O)c2c(=O)[nH]1)C1(CC3)C(=O)c2c(OC(=O)CC)c3c(c(OC(=O)CC)c2C1=O)C(=O)C(OC)=CC3=O (stereo not drawn) [Compound 4],percentage of mean survival time of test and control animals,Ehrlich carcinoma; 0.5 mg/kg/day,over 282%
same,percentage of mean survival time of test and control animals,Ehrlich carcinoma; 1.0 mg/kg/day,over 288%
same,percentage of mean survival time of test and control animals,Ehrlich carcinoma; 2.0 mg/kg/day,50%
C/C=C/C=C/c1cc2cc3c(c(O)c2c(=O)[nH]1)C1(CC3)C(=O)c2c(OC(=O)c3ccc(Cl)cc3)c3c(c(OC(=O)c4ccc(Cl)cc4)c2C1=O)C(=O)C(OC)=CC3=O (stereo not drawn) [Compound 11],response vs control in vivo at 0.5 mg/kg/day,Ehrlich carcinoma; [3],> 139%
same,response vs control in vivo at 1 mg/kg/day,Ehrlich carcinoma; [4],> 198%
same,response vs control in vivo at 2 mg/kg/day,Ehrlich carcinoma; [5],> 260%
C/C=C/C=C/c1cc2cc3c(c(O)c2c(=O)[nH]1)C1(CC3)C(=O)c2c(OC(=O)CCCCCCCCCCC)c3c(c(OC(=O)CCCCCCCCCCC)c2C1=O)C(=O)C(OC)=CC3=O (stereo not drawn) [Compound 7],MIC,[1],25 µg/mL
same,MIC,[2],1.56 µg/mL
same,percentage of mean survival time of test and control animals,Ehrlich carcinoma; 0.5 mg/kg/day,104%
same,percentage of mean survival time of test and control animals,Ehrlich carcinoma; 1.0 mg/kg/day,96%
same,percentage of mean survival time of test and control animals,Ehrlich carcinoma; 2.0 mg/kg/day,194%
